These results are taken from publication PMC11960969, “Mdga2 deficiency leads to an aberrant activation of BDNF/TrkB signaling that underlies autism-relevant synaptic and behavioral changes in mice” (PLOS Biology, 2025).

Where “and” joins values, the source holds several entries; their conditions need not be identical. Identical values can stand only once. No end group written: not given here.

For test [1], the system named is hippocampal proteins. Description: DIA quantification proteomics, hippocampus of Mdga2+/- vs WT mice. Details: species or system mouse. The note with it: S3 Table, downregulated DEPs; for log2FC: Mdga2+/- vs WT mouse hippocampus (HET-HIP-VS-WT-HIP), SE, pvalue and adj_pvalue in own columns c3-c5; for Class: regulation class of the protein, HET-HIP-VS-WT-HIP. As to the method:
The hippocampus of 1.5–2-month-old Mdga2^ +/− male mice and their WT littermate controls was collected and sent to the BGI company for DIA quantification proteomics and data analysis. Briefly, samples were lysed and sonicated. After centrifugation, the supernatant was taken for quantification. Equal amounts of proteins (100 μg) per sample were subjected to trypsin enzymatic hydrolysis. After dryness, 10 μg enzymatic peptides per sample were separated by high-pH fractionation into a total of 10 fractions using high-performance liquid chromatography (HPLC) and freeze-dried. Data-dependent acquisition (DDA) fractions and DIA samples were analyzed by nano-LC–MS/MS. DDA data was identified by Andromeda search engine within MaxQuant. Identified results were used by Spectronaut^TM for spectral library construction. For DIA data, Spectronaut^TM used the constructed spectral library information to complete deconvolution and extraction, and used the mProphet algorithm to complete analytical quality control for obtaining reliable quantitative results. The mass spectrometry proteomics data have been deposited to the ProteomeXchange Consortium via the PRIDE [62] partner repository with the dataset identifier PXD050810. DEPs between comparison groups were identified based on the quantitative results, using the fold change >1.1 and p-value <0.05 as the criteria. After retrieval from the UniProtKB database, identified DEPs were processed for GO analysis by using DAVID (https://david.ncifcrf.gov/home.jsp) and Metascape database (https://metascape.org/gp/index.html).

The test system of test [2] is mice. Description: Novel location recognition (NLR) test. The note with it: for NLR (novel location recognition), Figure S4D: individual animals. The format is in vivo, mouse. Set-up: key to NLR (novel location recognition), Figure S4D: discrimination index = (T novel − T familiar)/(T novel + T familiar). As to the method: (§1) Six- to eight-week-old male mice were subjected to various behavioral tests. Mice were allowed to acclimatize in the testing room for 1 h prior to each test. Data were recorded and analyzed using Smart 3.0 video tracking system (Panlab, Harvard Apparatus).
This test consists of habituation, training, and testing phases. Mice were first put into the open field apparatus described above for 10 min habituation. During the training phase, mice were allowed to freely explore two identical objects placed near two opposite corners of the open field arena for 8 min. Twenty-four hour later, one of the objects was moved to be close to a third corner (N: Novel location) while the other one was kept in the same spatial position (F: Familiar location). Mice were then tested for their exploration behavior with these objects for 8 min. The discrimination index (T(N − F)/T(N + F): time spent exploring the novel location minus time spent in familiar location over time spent to both novel and familiar location) was calculated to assess the recognition memory of mice.

The subject of test [3] is mice. Description: Self-grooming test. The format is in vivo, mouse. Details: Repetitive behaviors / Repetitive behaviors, Figure S4E: unit not given here. Conditions: for Repetitive behaviors: Figure 5D; for Repetitive behaviors / Repetitive behaviors, Figure S4E: Test2, individual animals. As to the method: as §1
Tested mice were placed individually in a clean cage with fresh bedding. After 5 min of habituation, the spontaneous behaviors of mice were recorded for 30 min and their self-grooming behavior was analyzed.

Test [4] concerns mice. Description: Three-chamber test (sociability and social novelty). The format is in vivo, mouse. Set-up: key to Sociability, Figure S4G: sociability index = (T_S1 - T_E)/(T_S1 + T_E), sniffing time; key to Social novelty, Figure S4G: social novelty index = (T_S2 - T_S1)/(T_S2 + T_S1), sniffing time. The note with it: for Sociability, Figure S4G / Social novelty, Figure S4G: individual animals. As to the method: as §1
This test was performed as described previously with minor modifications. The apparatus (60 W × 40 D × 22 H cm) has two transparent partitions separating the left, the middle, and the right chambers (20 × 40 cm each), and each partition has a small opening (5 × 5 cm) for access to each chamber. A fixed wire cylinder (8.5 cm diameter) was placed in each of the left and the right chambers. This test consisted of three phases: habituation, sociability test, and social novelty test. During habituation, both left and right cylinders were empty, and tested mice were placed in the center and allowed to explore freely for 10 min. During the sociability test, a gender-matched strange mouse (S1) was enclosed in one empty cylinder, and mice were allowed to freely explore for 10 min. Their time spent sniffing S1 or the other empty cylinder (E) was measured and the sociability preference index (T(S1 − -E)/T(S1 + E): time spent sniffing S1 minus time spent sniffing E over time spent sniffing both S1 and E) was calculated for comparison. During the social novelty test, another gender-matched unfamiliar mouse (S2) was placed into the empty cylinder and mice were allowed to freely explore for another 10 min. Their time spent sniffing S1 or S2 was measured and the social novelty preference index (T(S2 − S1)/T(S2 + S1): time spent sniffing S2 minus time spent sniffing S1 over time spent sniffing both S2 and S1) was calculated for comparison.

The test system of test [5] is mice. Description: Open field test.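 Also: values are total travel distance.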 The format is in vivo, mouse. Details: OFT (open field test), Figure S4C: unit not given here. The note with it: individual animals. As for the experimental part: as §1
Mice were gently placed in the center of an open field apparatus (40 × 40 × 40 cm), and allowed for a 10-min period of free movement. Total distance traveled and time spent in center were analyzed.

The subject of test [6] is human TrkB protein. Description: GST pull-down of purified human TrkB with MDGA2 fragments. The format is binding. The note with it: in vitro, GST-tagged fragments. As to the method: Full-length human TrkB or MDGA2 cDNA was cloned into the pcDNA6-His vector. TrkB and MDGA2 proteins were expressed in HEK293T cells and then purified using a His-tag Protein Purification Kit (Beyotime, Cat# P2229S).
GST pull-down: GST-fused MDGA2 fragments (L1: MDGA2 aa 746−786; L2: MDGA2 aa 787−833) were expressed in bacteria and purified using Glutathione Sepharose 4B (GE Healthcare, Cat# 17-0756-01). Purified human TrkB protein was incubated with GST-fused MDGA2-L1, MDGA2-L2, or GST proteins and then pulled down with Glutathione Sepharose 4B.

In test [7] the test system is mice. Description: Social affiliation test. The format is in vivo, mouse. Conditions: Mdga2+/- mice, 1 mg/kg i.p., 60 min, n = 10. As for the experimental part: as §1
The test procedure was similar to that described previously. Briefly, a cylinder (8.5 cm in diameter) with a gender-matched reference mouse confined was placed at a specific location in an open field (40 cm in diameter). Tested mice were allowed to move freely in the open field for 7 min and their sniffing time with the reference mice was analyzed.

Setting [8] is: Mdga2+/- mice, 1 mg/kg i.p., 60 min, n = 10.

With sp¦P97433¦ARG28_MOUSE, in test [1], the log2FC is reported as -1.853 and the Class result was “Down”.

In the case of sp¦P27038¦AVR2A_MOUSE, in test [1], the log2FC is listed as -1.635 and the Class result is reported as “Down”.

In the case of `O=C(Nc1ccccc1C(=O)NC1CCCCNC1=O)c1cc2ccccc2s1` (stereo not shown) [ANA12], the “NLR (novel location recognition), Figure S4D” value in test [2] (Het+ANA12, Test1) was -0.13 and 0.49 and 0.11 and 0.03 and 0.36 and -0.0741 and 0.20 and 0.55 and 0.14 and 0.51 and 0.0439 and 0.0756 and 0.45 and 0.32 and -0.03; in test [2] (Het+ANA12, Test2) it was 0.15 and 0.00112 and 0.11 and 0.43 and 0.18 and -0.10 and 0.51 and 0.26 and -0.18 and 0.30 and 0.00129 and 0.14 and -0.04; in test [2] (WT+ANA12, Test1) it was 0.36 and 0.47 and 0.12 and 0.06 and 0.23 and 0.50 and 0.35 and 0.32 and -0.035 and 0.43 and 0.37 and -0.09 and 0.25 and 0.51 and -0.07; in test [2] (WT+ANA12, Test2) it was -0.05 and 0.41 and 0.35 and 0.09 and 0.46 and -0.12 and 0.53 and 0.45 and 0.17 and 0.20 and -0.17 and 0.62 and 0.54. The Repetitive behaviors was 19 and 17 and 36 and 33 and 26 and 14 and 10 and 20 and 12 and 38 and 29 and 30 and 22 and 16 in test [3] (Het+ANA12); 32 and 20 and 14 and 10 and 7 and 25 and 9 and 18 and 8 and 11 and 13 in test [3] (WT+ANA12). For the same molecule, the “Repetitive behaviors, Figure S4E” value in test [3] (Het+ANA12) is 15 and 19 and 11 and 20 and 12 and 38 and 30 and 29 and 18 and 13 and 26 and 32 and 22 and 35; in test [3] (WT+ANA12), 12 and 22 and 6 and 30 and 5 and 14 and 8 and 18 and 10 and 16 and 9 and 20 and 17 and 11. Besides, the “Sociability, Figure S4G” value in test [4] (Het+ANA12, Test1) was 0.42 and 0.0153 and 0.50 and 0.46 and 0.24 and 0.59 and 0.23 and -0.06 and 0.14 and 0.34 and 0.26 and 0.0119 and 0.40; in test [4] (Het+ANA12, Test2), 0.33 and -0.13 and 0.40 and 0.15 and 0.02 and -0.01 and 0.31 and 0.35 and 0.08 and 0.17 and 0.12 and 0.27 and -0.04 and -0.19 and 0.54; in test [4] (WT+ANA12, Test1) it was 0.72 and 0.46 and 0.41 and 0.66 and 0.61 and 0.33 and 0.44 and 0.36 and 0.55 and -0.10 and 0.22 and -0.13 and 0.11; in test [4] (WT+ANA12, Test2), 0.39 and 0.66 and 0.10 and -0.24 and 0.51 and 0.65 and 0.38 and 0.48 and 0.50 and 0.31 and 0.54 and 0.29 and 0.71 and 0.09 and 0.47. Further, the “Social novelty, Figure S4G” value in test [4] (Het+ANA12, Test1) was 0.24 and 0.45 and 0.21 and -0.09 and -0.20 and 0.40 and 0.11 and -0.13 and 0.0948 and 0.000711 and 0.03 and 0.09 and 0.14 and 0.35; in test [4] (Het+ANA12, Test2) it was 0.15 and -0.17 and 0.23 and 0.32 and 0.18 and 0.16 and 0.44 and -0.13 and 0.0424 and -0.07 and 0.41 and -0.0144 and 0.06 and 0.0317 and 0.11; in test [4] (WT+ANA12, Test1), 0.05 and 0.43 and 0.53 and -0.13 and 0.39 and 0.40 and 0.32 and 0.62 and 0.44 and 0.33 and -0.01 and 0.18 and 0.61 and -0.10; in test [4] (WT+ANA12, Test2), -0.06 and 0.16 and 0.50 and 0.26 and 0.08 and 0.12 and 0.42 and 0.30 and 0.55 and 0.58 and 0.27 and 0.11 and 0.33. The “OFT (open field test), Figure S4C” value in test [5] (Het+ANA12, Test1) was 39.1 and 38.5 and 30.9 and 34.7 and 41.8 and 45.2 and 48.5 and 34.6 and 26.5; in test [5] (Het+ANA12, Test2), 19.1 and 38.5 and 35 and 43.1 and 30.9 and 22 and 39 and 30.4 and 45.6 and 31.5 and 29.6 and 25.1 and 49.6 and 27.8 and 28.2; in test [5] (WT+ANA12, Test1), 46.5 and 20.6 and 31.2 and 41.8 and 24 and 27.1 and 44.6 and 35 and 26.6 and 21.8 and 34.8 and 37 and 41.1 and 19.1 and 26.9; in test [5] (WT+ANA12, Test2) it was 43.3 and 20.5 and 26 and 46 and 26.1 and 37.1 and 47.7 and 21.2 and 24.6 and 27.2 and 22 and 34.1 and 17 and 29.8 and 32.4.

In the case of sp¦Q80YX1¦TENA_MOUSE, in test [1], the log2FC is reported as -1.6471 and the Class entry is recorded as “Down”.

sp¦Q3UQ44¦IQGA2_MOUSE: in test [1], the log2FC is given as -1.377 and the Class result is given as “Down”.

For sp¦Q91WG7¦DGKG_MOUSE, in test [1], the log2FC was -3.157 and the Class entry is “Down”.

Regarding sp¦A2A791¦ZMYM4_MOUSE, in test [1], the log2FC is -2.935 and the Class entry is “Down”.

For sp¦A2AF47¦DOC11_MOUSE, in test [1], the log2FC is recorded as -1.478 and the Class entry is reported as “Down”.

“L2: GST-fused MDGA2 fragment aa 787−833 (NADRSGSKEGFYMYIETSRPRLEGEKARLLSPVFSIAPKNPYGPTNT; also: GST-fused)”: in test [6], the “interaction with TrkB (GST pull-down)” value was “interacted with TrkB”.

As for `CCN(CC)Cc1cccc(/C=C/c2nc3ccc(F)cc3c(=O)n2-c2ccccc2Cl)n1` [CP-465022, reference compound], in test [2] (setting [8]), the recognition memory entry was “without affecting social novelty, recognition memory”. Also, the repetitive self-grooming behavior result in test [3] (setting [8]) is “without affecting social novelty, recognition memory, and repetitive self-grooming behavior”. Further, in test [4] (setting [8]), the sociability result is “rapidly promoted social affiliation and sociability”; the social novelty entry is given as “without affecting social novelty”. For the same molecule, in test [7], the social affiliation result is listed as “rapidly promoted social affiliation”.

Regarding sp¦Q0VGY8¦TANC1_MOUSE, in test [1], the log2FC was -2.363 and the Class result was “Down”.

For “L1: GST-fused MDGA2 fragment aa 746−786 (FHCGFEDGNICLFTQDDTDNFDWTKQSTATRNTKYTPNTGP; cysteine pairing not given here; also: GST-fused)”, the “interaction with TrkB (GST pull-down)” value in test [6] is listed as “not GST-tagged L1 interacted with TrkB”.
